# Measurements published in patent publication US20040106545A1, “Compounds and methods for modulating cell adhesion” (priority 1996, published 2004).
# “Also recorded” adds a separate entry of the source. Where two headings read alike, the source gives them in different places. Positions of bridges follow the written chain, without caps; N, C: chain ends. Residues, ends and D or L forms follow the SMILES beside them.
# Tests used:
# PC-3 [1] = test: Cytotoxicity, MTT assay, PC-3; type: cell-based, human
# In short: (§1)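 Peptide concentrations reached 100 μM. Both an MTT cytotoxicity read-out and ^3H-thymidine incorporation for proliferation were used.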
# MDA-MB231 [2] = test: Cytotoxicity, MTT assay, MDA-MB231; type: cell-based, human
# In short: as §1
# HMVEC = type: cell-based, human; conditions: 3 h
# In short: as §1
# PC-3 [3] = type: cell-based, human; conditions: 3 h
# In short: as §1
# HUVEC = type: cell-based, human; conditions: 3 h
# In short: as §1
# WI-38 = type: cell-based, human; conditions: 3 h
# In short: as §1
# IAFp2 = type: cell-based, human; conditions: 3 h
# In short: as §1
# MDA-MB231 [4] = type: cell-based, human; conditions: 3 h
# In short: as §1
# N-cadherin = target: T1, N-cadherin (Gallus gallus, UniProt P10288); test: Neurite outgrowth inhibition, rat neurons (Example 21); type: cell-based; conditions: read-out: % Inhibition of neurite outgrowth; 250 μg/mL
# T1 construct: expressed in transfected cells; host or cells: 3T3 fibroblasts (monolayer)
# T1 sequence (P10288 165-912): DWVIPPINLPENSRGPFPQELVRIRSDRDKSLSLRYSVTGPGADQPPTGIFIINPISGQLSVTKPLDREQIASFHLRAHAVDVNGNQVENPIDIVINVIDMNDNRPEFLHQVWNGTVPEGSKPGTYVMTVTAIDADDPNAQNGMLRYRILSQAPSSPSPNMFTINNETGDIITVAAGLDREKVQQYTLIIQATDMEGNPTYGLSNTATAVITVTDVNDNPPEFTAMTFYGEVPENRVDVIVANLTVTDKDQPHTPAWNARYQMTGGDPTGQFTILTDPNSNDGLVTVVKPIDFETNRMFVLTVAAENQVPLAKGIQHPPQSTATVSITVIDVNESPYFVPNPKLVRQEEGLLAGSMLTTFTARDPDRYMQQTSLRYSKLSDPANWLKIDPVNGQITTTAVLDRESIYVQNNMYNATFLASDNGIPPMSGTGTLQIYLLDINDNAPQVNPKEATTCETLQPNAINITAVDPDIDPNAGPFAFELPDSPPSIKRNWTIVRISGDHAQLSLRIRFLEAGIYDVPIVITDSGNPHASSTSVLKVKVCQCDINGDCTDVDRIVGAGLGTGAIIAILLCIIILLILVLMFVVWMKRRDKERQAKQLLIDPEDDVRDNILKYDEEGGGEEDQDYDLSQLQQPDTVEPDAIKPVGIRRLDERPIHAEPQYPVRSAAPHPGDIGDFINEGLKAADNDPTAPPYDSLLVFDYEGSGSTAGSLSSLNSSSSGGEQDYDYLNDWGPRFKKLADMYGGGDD
# [5] = test system: Bovine pulmonary artery endothelial cells; test: Disruption of bovine endothelial cell adhesion; type: cell-based; conditions: 500 μg/ml, 30 minutes
# Protocol: For use within one such assay, bovine pulmonary artery endothelial cells may be harvested by sterile ablation and digestion in 0.1% collagenase (type II; Worthington Enzymes, Freehold, N.J.). Cells may be maintained in Dulbecco's minimum essential medium supplemented with 10% fetal calf serum and 1% antibiotic-antimycotic at 37° C. in 7% CO2 in air. Cultures may be passaged weekly in trypsin-EDTA and seeded onto tissue culture plastic at 20,000 cells/cm^2. Endothelial cultures may be used at 1 week in culture, which is approximately 3 days after culture confluency is established. The cells may be seeded onto coverslips and treated (e.g., for 30 minutes) with modulating agent or a control compound at, for example, 500 μg/ml and then fixed with 1% paraformaldehyde. As noted above, disruption of cell adhesion may be determined visually within 24 hours, by observing retraction of the cells from one another. This assay evaluates the effect of a modulating agent on N-cadherin mediated cell adhesion.
# Bovine pulmonary artery endothelial cells were harvested by sterile ablation and digestion in 0.1% collagenase (type II; Worthington Enzymes, Freehold, N.J.). Cells were maintained in Dulbecco's minimum essential medium (Clonetics, San Diego, Calif.) supplemented with 10% fetal calf serum (Atlantic Biologicals, Nor cross, Ga.) and 1% antibiotic-antimycotic at 37° C. in 7% CO2 in air. Cultures were passaged weekly in trypsin-EDTA (Gibco, Grand Island, N.Y.) and seeded onto tissue culture plastic at 20,000 cells/cm^2 for all experiments. Endothelial cultures were used at 1 week in culture, which is approximately 3 days after culture confluency was established. The cells used in all protocols were between 4th passage and 10th passage. The cells were seeded onto coverslips and treated 30 minutes with N—Ac-CHAVC-NH2 (SEQ ID NO:10) or N—Ac-CHGVC-NH2 (SEQ ID NO:11) at 500 μg/ml and then fixed with 1% paraformaldehyde.
# Solubility in RPMI = type: physicochemical; conditions: 1 mM
# [6] = test system: Madin Darby canine kidney (MDCK) cells; type: cell-based
# Protocol: Yet another assay evaluates the effect of a modulating agent on the electrical resistance across a monolayer of cells. For example, Madin Darby canine kidney (MDCK) cells can be exposed to the modulating agent dissolved in medium (e.g., at a final concentration of 0.5 mg/ml for a period of 24 hours). The effect on electrical resistance can be measured using standard techniques. This assay evaluates the effect of a modulating agent on tight junction formation in epithelial cells. In general, the presence of 500 μg/mL modulating agent should result in a statistically significant decrease in electrical resistance after 24 hours.
# Madin Darby canine kidney (MDCK) cells were plated in Millicells (Millipore, Bedford, Mass.), at a density of 300,000 cells per Millicell, and cultured in Dulbecco's Modified Eagle Medium (DMEM; Sigma, St. Louis, Mo.) containing 5% fetal calf serum (Sigma, St. Louis, Mo.) until monolayers formed. Monolayers were exposed to the modulating agent dissolved in medium. The electrical resistance was measured using the EVOM device (World Precision Instruments, Sarasota, Fla.). At the time of measurement, fresh medium, with or without the modulating agent, may be added to the Millicells.
# [7] = test system: Madin Darby canine kidney (MDCK) cells; type: cell-based; conditions: 18 h
# chick N-cadherin = target: T2, chick N-cadherin (Gallus gallus, UniProt P10288); test: Neurite outgrowth of rat cerebellar neurons on N-cadherin expressing 3T3 monolayers (Example 15); type: cell-based
# T2 construct: expressed in transfected cells; host or cells: 3T3 fibroblasts (monolayer); rat post-natal day 2-3 cerebellar neurons plated on top
# T2 sequence (P10288 165-912): T1 sequence (P10288 165-912)
# SKOV3 cells = test: Disruption of human ovarian cancer cell (SKOV3) adhesion; type: cell-based; conditions: 1 mg/mL media, within 24 hours
# Protocol: FIGS. 37A and 37B are photographs illustrating the effect of N—Ac-CHAVC-Y—NH2 (SEQ ID NO:84) on SKOV3 cell adhesion. A confluent culture of SKOV3 cells was briefly trypsinated and counted using a hemacytometer. The cells were diluted to 5×10^3/mL in MEM (Gibco BRL) containing 10% FBS (Wisent). A 10 mg/mL solution of peptide was added directly to the media at a concentration of 1 mg/mL. The plate was incubated in a humidified chamber at 37° C. for 24 hours in 5% CO2. Morphological changes were evaluated after 24 hours.
# The human ovarian cancer cell line SKOV3 (ATCC #HTB-77) expresses N-cadherin. SKOV3 cells were cultured in a modified MEM-based media containing 10% FCS. Cells were grown in T-250 culture flasks and maintained by periodic subculturing. Cyclic peptides were tested on cells grown in individual wells of 96-well culture dishes (surface area of each well was 0.32 cm^2). Cells were harvested from flasks and seeded at a density of 50,000 cells per well in 0.1 mL media containing the cyclic peptides at concentrations of 1, 0.1, or 0.01 mg/mL, or in the absence of cyclic peptide. Media control wells were also established. Cultures were evaluated periodically by microscopic examination under both bright field and phase contrast conditions. Cultures were maintained for 48 hours.
# L1 = L1 (Homo sapiens, UniProt P32004); test: Neurite outgrowth of rat cerebellar neurons on L1 expressing 3T3 monolayers (Example 15); type: cell-based; parameters: expressed in transfected cells; rat cerebellar neurons on top
# L1, sequence (P32004 20-1257): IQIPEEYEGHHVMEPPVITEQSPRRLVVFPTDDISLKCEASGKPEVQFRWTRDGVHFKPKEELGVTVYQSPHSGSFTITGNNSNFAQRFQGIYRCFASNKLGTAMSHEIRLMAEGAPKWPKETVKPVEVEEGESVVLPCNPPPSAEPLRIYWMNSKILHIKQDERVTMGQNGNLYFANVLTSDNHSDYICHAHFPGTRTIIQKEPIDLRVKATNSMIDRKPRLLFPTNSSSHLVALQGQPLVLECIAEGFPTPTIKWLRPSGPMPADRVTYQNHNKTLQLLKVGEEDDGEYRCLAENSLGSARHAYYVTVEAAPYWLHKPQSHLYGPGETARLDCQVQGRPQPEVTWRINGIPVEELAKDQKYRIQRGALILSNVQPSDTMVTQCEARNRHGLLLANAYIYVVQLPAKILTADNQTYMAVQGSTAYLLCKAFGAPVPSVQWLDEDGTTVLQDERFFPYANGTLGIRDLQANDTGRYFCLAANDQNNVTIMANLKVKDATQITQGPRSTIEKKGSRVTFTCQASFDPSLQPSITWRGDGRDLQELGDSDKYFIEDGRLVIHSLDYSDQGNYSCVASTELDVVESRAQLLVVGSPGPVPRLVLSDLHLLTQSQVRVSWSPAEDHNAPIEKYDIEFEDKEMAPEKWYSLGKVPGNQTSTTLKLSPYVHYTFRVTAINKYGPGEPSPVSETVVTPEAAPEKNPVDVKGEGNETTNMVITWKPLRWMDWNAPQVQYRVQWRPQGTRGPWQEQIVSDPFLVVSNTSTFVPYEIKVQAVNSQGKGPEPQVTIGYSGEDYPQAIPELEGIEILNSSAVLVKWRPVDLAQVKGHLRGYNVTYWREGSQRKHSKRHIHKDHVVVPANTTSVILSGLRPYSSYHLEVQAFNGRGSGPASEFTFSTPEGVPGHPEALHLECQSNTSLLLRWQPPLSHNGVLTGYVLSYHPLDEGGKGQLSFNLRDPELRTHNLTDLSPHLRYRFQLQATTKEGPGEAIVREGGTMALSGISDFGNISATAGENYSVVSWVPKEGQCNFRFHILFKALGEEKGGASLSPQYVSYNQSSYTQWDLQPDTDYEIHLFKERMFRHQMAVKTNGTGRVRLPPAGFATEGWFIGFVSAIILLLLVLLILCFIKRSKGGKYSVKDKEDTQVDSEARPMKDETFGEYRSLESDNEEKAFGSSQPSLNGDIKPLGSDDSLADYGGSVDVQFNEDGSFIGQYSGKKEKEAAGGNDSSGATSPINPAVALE
# Protocol: Cell culture and neurite outgrowth assays. Co-cultures of cerebellar neurons on monolayers of control 3T3 cells and monolayers of transfected 3T3 cells that express physiological levels of chick N-cadherin or human L1 were established as previously described (Williams et al., Neuron 13:583-594, 1994). In brief, 80,000 3T3 cells (control and transfected) were plated into individual chambers of an eight-chamber tissue culture slide coated with polylysine and fibronectin and cultured in DMEM/10% FCS. After 24 hours, when confluent monolayers had formed, the medium was removed and 3000 cerebellar neurons isolated from post-natal day 2-3 rats were plated into each well in SATO media (Doherty et al., Nature 343:464-466, 1990) supplemented with 2% FCS. All of the test peptides were added immediately before the neurons as a 2× stock prepared in SATO/2% FCS. The co-cultures were maintained for 16-18 hours, at which time they were fixed and immunostained for GAP-43 which is present only in the neurons and delineates the neuritic processes. The mean length of the longest neurite per cell was measured for 150-200 neurons sampled in replicate cultures as previously described (Williams et al., Neuron 13:583-594, 1994). […] Dose-response curves were evaluated and the EC50 values determined.
# Other cell adhesion molecules, such as L1, can stimulate neurite outgrowth, and this response shares the same downstream signaling steps as the N-cadherin response. […] As previously reported, L1 stimulated neurite outgrowth from cerebellar neurons.
# [8] = test system: Human saphenous vein vascular smooth muscle cells; test: Vascular smooth muscle cell apoptosis at migrating wound edge, in situ end labeling; type: cell-based; conditions: 0.2 mg/ml, 24 hours after wounding, n=5, p=0.1
# Protocol: Human saphenous vein vascular smooth muscle cells were explanted from surplus segments of vein from patients undergoing coronary artery bypass surgery. Cells were maintained in Dulbecco's modified essential medium supplemented with […], 2 mmol/L L-glutamine and 10% fetal calf serum and were grown to confluence on glass coverslips. The cell layer was then subjected to scrape-wounding by drawing a fine cell scraper across the coverslip. Proliferation of the vascular smooth muscle cells was inhibited by addition of 2 mM hydroxyurea to the culture media. Vascular smooth muscle cells that are treated in this manner respond to the wounding of the confluent monolayer by migrating into the wound (Hammerle et al (1991) Vasa 20, 207-215). The percentage of apoptotic cells in the migrating edge (outermost 100 μm from the wound) was assessed by in situ end labeling at 24 hours after wounding (as in George et al (2001) Gene Therapy 8 668-676).
IC50 (HMVEC),IC50 (PC-3 [3]),IC50 (IAFp2),IC50 (MDA-MB231 [4]),inhibition at 250 µg/mL (N-cadherin),solubility in RPMI (Solubility in RPMI),"% inhibition of N-cadherin dependent neurite outgrowth (chick N-cadherin; 125 μg/mL, 16-18 hours)","inhibition at 125 µg/mL (chick N-cadherin; 125 μg/mL, 16-18 hours, read-out: % Inhibition of N-Cadherin Dependent Neurite Outgrowth)","inhibition at 125 µg/mL (L1; 125 μg/ml, read-out: % Inhibition of L1 Response)",Structure (SMILES),IC50 (PC-3 [1]),IC50 (MDA-MB231 [2]),IC50 (HUVEC),IC50 (WI-38),effect on endothelial cell monolayer / morphology [5],effect on electrical resistance across MDCK cells (in words) [6],EC50 [7],disruption of SKOV3 cell adhesion (SKOV3 cells),effect on L1 stimulated neurite outgrowth (in words) (L1; concentrations that inhibited the N-cadherin response (100 μg/mL in FIG. 24)),"inhibitory activity on N-cadherin dependent neurite outgrowth, structure/activity statements (chick N-cadherin; Tables 8 and 9)",increase in apoptosis at wound edge [8]
> 100 µM,> 100 µM,> 100 µM,> 100 µM,0%,–,–,–,–,CC[C@H](C)[C@@H]1NC(=O)[C@H](CC(=O)O)NC(=O)[C@H](C(C)C)NC(=O)CNC(=O)[C@H](Cc2c[nH]cn2)NC(=O)[C@H](C)NC(=O)[C@@H](NC(C)=O)CSSC[C@@H](C(N)=O)NC1=O (Ac-CAHGVDIC-NH2; disulfide 1-8),> 100 µM,> 100 µM,> 100 µM,> 100 µM,neither of the cyclic peptides show activity,–,–,–,–,–,–
70 µM,> 100 µM,> 100 µM,76 µM,0%,*Incompletely soluble in RPMI at 1 mM,–,–,–,CC(=O)N[C@H]1CSSC[C@@H](C(N)=O)NC(=O)[C@H](CO)NC(=O)[C@H](CO)NC(=O)[C@H](C(C)C)NC(=O)[C@H](C)NC(=O)[C@H](Cc2c[nH]cn2)NC(=O)[C@H](CO)NC1=O (Ac-CSHAVSSC-NH2; disulfide 1-8 (inferred)),> 100 µM,> 100 µM,69 µM,> 100 µM,–,–,–,–,–,–,–
–,–,–,–,–,–,89.8 ± 6.8%,89.9%,–,CC(=O)N[C@H]1CSSC[C@@H](C(=O)N[C@@H](Cc2ccc(O)cc2)C(N)=O)NC(=O)[C@H](C(C)C)NC(=O)[C@H](C)NC(=O)[C@H](Cc2c[nH]cn2)NC1=O [N—Ac—CHAVCY—NH2] (Ac-CHAVCY-NH2; disulfide 1-5),–,–,–,–,–,the most active,210 µM,disrupted SKOV3 cell adhesion,–,–,–
–,–,–,–,–,–,–,–,6 ± 4.7%,CC[C@H](C)[C@@H]1NC(=O)[C@H](CC(=O)O)NC(=O)[C@H](C(C)C)NC(=O)[C@H](C)NC(=O)[C@H](Cc2c[nH]cn2)NC(=O)[C@@H](NC(C)=O)CSSC[C@@H](C(N)=O)NC1=O [N—Ac—CHAVDIC—NH2] (Ac-CHAVDIC-NH2; disulfide 1-7),–,–,–,–,–,complete abrogation of E-cadherin specific activity,–,–,did not interfere with the ability of neurons to extend neurites over 3T3 cells expressing L1,further increased activity; also recorded: potent inhibitors,1.3 fold
